Experimental findings from US5310741A, “TAN-1251 compounds and their production from penicillium thomii” (Takeda Chemical Industries, Ltd., priority 1990, dated 1994) are described below.

The subject of data set [1] is mice. The experiment in a line: Acute toxicity, oral administration in mice. Particulars: 100 mg/kg. The format is in vivo. The method, then: For assessment of the acute toxicity of TAN-1251, an oral administration experiment using TAN-1251A and B was performed in mice.
Data set [2] deals with acetylcholine-induced contraction of the isolated Guinea pig ileum. The experiment in a line: Antagonizing activity against acetylcholine-induced contraction of the isolated Guinea pig ileum. On the set-up: species or system Guinea pig (Std Hartley). Particulars: Cavia porcellus, 5 min; acetylcholine 1×10^-7 M, 37° C., 5 minutes equilibration; read-out: Guinea pig ileal contractility ED50 (50% inhibition of the maximal contraction). The method, then:
(b) Antagonizing activity against acetylcholine-induced contraction of the isolated Guinea pig ileum
A Guinea pig (Std Hartley, male, 250 g, Japan SLC) deprived of food for 24 hours was subjected to brain concussion and after exsanguination from the carotid artery, the ileum was isolated. An ileal strip, about 3 cm long, was prepared and suspended in a Magnus tube containing 20 ml of Tyrode solution. At a constant bath temperature of 37° C., a mixed gas (95% O2 -5% CO2) was bubbled through the bath. The sample was added and after 5 minutes of equillibration, acetylcholine (Daiichi Seiyaku, Japan) was added at a final concentration of 1×10^-7 M to induce contraction of the ileal strip. The contraction was recorded through an isotonic transducer (ME-4013, Suruga Electronics, Japan) on a recorder (Rectiholy 8K, Japan Electronics Sanei, Japan). The activity of the same was expressed in ED50 representing 50% inhibition of the maximal contraction.

Data set [3] is classed as physicochemical. The text has this: Below presented as the physicochemical properties of the respective species of TAN-1251 prepared in the Examples given hereinafter.
Data set [4] deals with Muscarinic receptor. The format is binding, Wistar rat. Particulars: 3H-QNB radioligand, room temperature, 60 minutes; read-out: Radio receptor assay IC50.

On to `CC(C)=CCOc1ccc(C=C2CN(C)C3CN2C2(CCC(=O)CC2)C3)cc1` (stereo not shown) [Compound 1], for which the “toxic signs (acute toxicity)” value in data set [1] is recorded as “no toxic signs were observed”. The IC50 worked out at 8 nM in data set [2] and 5.7 nM in data set [4]. In addition, in data set [3], the “Properties (basicity and liposolubility)” value is “Basic and liposoluble”.
For `CC(C)=CCOc1ccc(C=C2CN(C)C3CN2C2(CCC(=O)C(O)C2)C3)cc1` (stereo not shown) [Compound 2], in data set [1], the “toxic signs (acute toxicity)” value is listed as “no toxic signs were observed”. Moreover, the IC50 in data set [2] came to 13 nM; in data set [4], 0.13 nM. Besides, the “Properties (basicity and liposolubility)” value in data set [3] is “Basic and liposoluble”.
For `CC(C)=CCOc1ccc(CC2=CN(C)C3CN2C2(CCC(=O)CC2)C3)cc1` (stereo not shown) [Compound 3], in data set [3], the “Properties (basicity and liposolubility)” value is “Basic and liposoluble”.
The same measure, in the same setting: the entry for `CC(C)=CCOc1ccc(CC2CN(C)C3CN2C2(CCC(=O)CC2)C3)cc1` (stereo not shown) [Compound 4] is “Basic and liposoluble”.
